Data published in the supplement of paper PMC10307832.

Assays:
Assay in all cases: relative viability (nuclei count vs DMSO), 5 days (fraction); higher = more cells survive
AGI-6780 + Phenformin = compound: O=C(Nc1cccc(C(F)(F)F)c1)Nc1cc(S(=O)(=O)NC2CC2)ccc1-c1ccsc1 [AGI-6780] + N=C(N)NC(=N)NCCc1ccccc1 [Phenformin] (partner 250 µM)
Summary of the method: (§1)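 Dosing by pin tool came one day after lung cancer cell lines were seeded in 1536-well plates, using either one drug or a fixed anchor-drug dose plus five library-drug doses (not always all listed) in √10 steps. After 5 days, nuclei were counted on 4× images. Relative viability is treated-well nuclei count divided by vehicle-well nuclei count, and values are medians of duplicate plates.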

AGI-6780 + OSI-027 = compound: O=C(Nc1cccc(C(F)(F)F)c1)Nc1cc(S(=O)(=O)NC2CC2)ccc1-c1ccsc1 [AGI-6780] + COc1cccc2cc(-c3nc([C@H]4CC[C@H](C(=O)O)CC4)n4ncnc(N)c34)[nH]c12 [OSI-027] (partner 0.5 µM)
Summary of the method: as §1

AGI-6780 + Crizotinib = compound: O=C(Nc1cccc(C(F)(F)F)c1)Nc1cc(S(=O)(=O)NC2CC2)ccc1-c1ccsc1 [AGI-6780] + C[C@@H](Oc1cc(-c2cnn(C3CCNCC3)c2)cnc1N)c1c(Cl)ccc(F)c1Cl [Crizotinib] (partner 1 µM)
Summary of the method: as §1

AGI-6780 + Trametinib = compound: O=C(Nc1cccc(C(F)(F)F)c1)Nc1cc(S(=O)(=O)NC2CC2)ccc1-c1ccsc1 [AGI-6780] + CC(=O)Nc1cccc(-n2c(=O)n(C3CC3)c(=O)c3c(Nc4ccc(I)cc4F)n(C)c(=O)c(C)c32)c1 [Trametinib] (partner 0.02 µM)
Summary of the method: as §1

Cell Line	relative viability (AGI-6780 + Phenformin; first compound 0.08 µM)	relative viability (AGI-6780 + Phenformin; first compound 0.253 µM)	relative viability (AGI-6780 + Phenformin; first compound 0.8 µM)	relative viability (AGI-6780 + Phenformin; first compound 2.53 µM)	relative viability (AGI-6780 + Phenformin; first compound 8 µM)	relative viability (AGI-6780 + OSI-027; first compound 0.08 µM)	relative viability (AGI-6780 + OSI-027; first compound 0.253 µM)	relative viability (AGI-6780 + OSI-027; first compound 0.8 µM)	relative viability (AGI-6780 + OSI-027; first compound 2.53 µM)	relative viability (AGI-6780 + OSI-027; first compound 8 µM)	relative viability (AGI-6780 + Crizotinib; first compound 0.08 µM)	relative viability (AGI-6780 + Crizotinib; first compound 0.253 µM)	relative viability (AGI-6780 + Crizotinib; first compound 0.8 µM)	relative viability (AGI-6780 + Crizotinib; first compound 2.53 µM)	relative viability (AGI-6780 + Crizotinib; first compound 8 µM)	relative viability (AGI-6780 + Trametinib; first compound 0.08 µM)	relative viability (AGI-6780 + Trametinib; first compound 0.253 µM)	relative viability (AGI-6780 + Trametinib; first compound 0.8 µM)	relative viability (AGI-6780 + Trametinib; first compound 2.53 µM)	relative viability (AGI-6780 + Trametinib; first compound 8 µM)
HCC-366	0.615	0.667	0.589	0.321	0.682	1.02	1.09	0.926	0.595	1	0.606	0.56	0.445	0.335	0.374	0.395	0.375	0.365	0.156	0.301
HCC-827	0.423	0.39	0.413	0.395	0.376	0.68	0.705	0.824	0.673	0.798	0.965	0.9	0.861	0.981	0.943	0.457	0.518	0.518	0.435	0.476
HOP-62	0.684	0.663	0.876	0.689	0.763	0.886	0.906	0.884	0.715	1.01	0.857	0.919	0.971	0.731	0.502	0.366	0.321	0.316	0.321	0.396
IA-LM											1.12	0.76	1.09	0.827	0.876					
LC-2-ad	0.623	0.59	0.605	0.54	0.505	0.829	0.875	0.874	0.638	0.794	0.579	0.491	0.467	0.412	0.508	0.917	0.873	0.931	0.964	0.917
